Experimental data taken from patent US9302999B2, “Substituted triazoles as herbicides” (E. I. DU PONT DE NEMOURS AND COMPANY, priority 2012, dated 2016).

Columns and labels:
Type in all cases: in vivo
[1] = tested on: wheat (Triticum aestivum); experiment: Test A pre-/postemergence: wheat
Outline: (§1)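 Plants in loam–sand blend were treated with test chemicals in non-phytotoxic solvent with surfactant, either as preemergence directed soil spray or postemergence at 2–10 cm, one- to two-leaf stage. After about ten days in greenhouse, injury was rated visually against untreated controls on a 0–100 scale (100 = complete control).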

[2] = tested on: nutsedge, yellow (yellow nutsedge, Cyperus esculentus); experiment: Test C pre-/postemergence: nutsedge, yellow
Outline: (§2)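 Preemergence on seeds in loam/sand, postemergence on 2–18 cm (1–4-leaf) plants in peat-based medium; compounds in non-phytotoxic solvent with surfactant. After 13–15 days in greenhouse, visual rating versus controls, 0 (no effect) to 100 (complete control).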

[3] = tested on: lambsquarters (Chenopodium album); experiment: Test C pre-/postemergence: lambsquarters
Outline: as §2

[4] = tested on: pigweed (Amaranthus retroflexus); experiment: Test A pre-/postemergence: pigweed
Outline: as §1

[5] = tested on: crabgrass, large (large crabgrass, Digitaria sanguinalis); experiment: Test A pre-/postemergence: crabgrass, large; conditions: for Crabgrass, Large plant response rating: Postemergence; for Plant response rating, Crabgrass, Large: Preemergence
Outline: as §1

[6] = tested on: foxtail, giant (giant foxtail, Setaria faberii); experiment: Test C pre-/postemergence: foxtail, giant
Outline: as §2

corn (Zea mays) = experiment: Test A pre-/postemergence: corn; conditions: for Corn plant response rating: Postemergence; for Plant response rating, Corn: Preemergence
Outline: as §1

[7] = tested on: barnyardgrass (Echinochloa crus-galli); experiment: Test A pre-/postemergence: barnyardgrass; conditions: for Barnyardgrass plant response rating: Postemergence; for Plant response rating, Barnyardgrass: Preemergence
Outline: as §1

soybean (Glycine max) = experiment: Test C pre-/postemergence: soybean
Outline: as §2

[8] = tested on: ryegrass, Italian (Italian ryegrass, Lolium multiflorum); experiment: Test C pre-/postemergence: ryegrass, Italian
Outline: as §2

[9] = tested on: winter wheat (Triticum aestivum); experiment: Test C pre-/postemergence: winter wheat
Outline: as §2

[10] = Postemergence, 125 g ai/ha, 0 to 100 scale, 0 is no effect, 100 is complete control
[11] = Postemergence, 500 g ai/ha, visual rating on 0 to 100 scale (0 no effect, 100 complete control), approximately ten days
[12] = Preemergence, 125 g ai/ha, 0 to 100 scale where 0 is no effect and 100 is complete control
[13] = Preemergence, 500 g ai/ha, 0 to 100 scale (0 no effect, 100 complete control)
[14] = Postemergence, 31 g ai/ha, scale 0 to 100 (0 no effect, 100 complete control)
[15] = Postemergence, 62 g ai/ha, scale 0 to 100 (0 no effect, 100 complete control)
[16] = Postemergence, 125 g ai/ha, scale 0 to 100, 0 no effect, 100 complete control
[17] = Postemergence, 250 g ai/ha, scale 0 to 100
[18] = Preemergence, 31 g ai/ha, scale of 0 to 100, 0 is no effect, 100 is complete control
[19] = Preemergence, 125 g ai/ha, scale 0 to 100, 0 no effect, 100 complete control
[20] = Preemergence, 250 g ai/ha, scale 0 to 100, 0 no effect, 100 complete control
[21] = Preemergence, 62 g ai/ha, scale of 0 to 100, 0 is no effect, 100 is complete control
[22] = 125 g ai/ha, 0 to 100 scale, 0 is no effect, 100 is complete control
[23] = 500 g ai/ha, visual rating on 0 to 100 scale (0 no effect, 100 complete control), approximately ten days
[24] = 125 g ai/ha, 0 to 100 scale where 0 is no effect and 100 is complete control
[25] = 500 g ai/ha, 0 to 100 scale (0 no effect, 100 complete control)

Fc1ccc(-n2nc(Cc3ccnc(C(F)(F)F)c3)c(OCC(F)(F)F)n2)cc1 [Compound 142]
15: Plant response rating, Nutsedge, Yellow [2, 16] | Plant response rating, Wheat [9, 14]
0: Plant response rating, Nutsedge, Yellow [2, 18] | Plant response rating, Nutsedge, Yellow [2, 19] | Plant response rating, Nutsedge, Yellow [2, 20] | Plant response rating, Soybean (soybean (Glycine max); [18])
70: Plant response rating, Wheat [1, 12]
50: Corn plant response rating (corn (Zea mays); [22]) | Plant response rating, Soybean (soybean (Glycine max); [14]) | Plant response rating, Ryegrass, Italian [8, 16] | Plant response rating, Ryegrass, Italian [8, 17] | Plant response rating, Wheat [9, 20]
45: Plant response rating, Wheat [9, 17]
25: Plant response rating, Wheat [9, 15]
30: Plant response rating, Corn (corn (Zea mays); [24]) | Plant response rating, Ryegrass, Italian [8, 18]
20: Plant response rating, Nutsedge, Yellow [2, 17] | Plant response rating, Foxtail, Giant [6, 14] | Plant response rating, Soybean (soybean (Glycine max); [20])
5: Plant response rating, Nutsedge, Yellow [2, 14] | Plant response rating, Nutsedge, Yellow [2, 15] | Plant response rating, Soybean (soybean (Glycine max); [21]) | Plant response rating, Soybean (soybean (Glycine max); [19]) | Plant response rating, Wheat [9, 21]
55: Plant response rating, Soybean (soybean (Glycine max); [15]) | Plant response rating, Soybean (soybean (Glycine max); [16]) | Plant response rating, Soybean (soybean (Glycine max); [17])
75: Plant response rating, Foxtail, Giant [6, 15]
10: Plant response rating, Ryegrass, Italian [8, 14]
90: Plant response rating, Lambsquarters [3, 21] | Plant response rating, Foxtail, Giant [6, 17] | Plant response rating, Ryegrass, Italian [8, 21] | Plant response rating, Ryegrass, Italian [8, 19] | Plant response rating, Ryegrass, Italian [8, 20]
40: Plant response rating, Ryegrass, Italian [8, 15] | Plant response rating, Wheat [9, 16]
100: Plant response rating, Pigweed [4, 10] | Pigweed plant response rating [4, 11] | Plant response rating, Pigweed [4, 12] | Plant response rating, Pigweed [4, 13] | Crabgrass, Large plant response rating [5, 22] | Crabgrass, Large plant response rating [5, 23] | Plant response rating, Crabgrass, Large [5, 24] | Plant response rating, Crabgrass, Large [5, 25] | Plant response rating, Foxtail, Giant [6, 18] | Plant response rating, Foxtail, Giant [6, 21] | Plant response rating, Foxtail, Giant [6, 19] | Plant response rating, Foxtail, Giant [6, 20] | Barnyardgrass plant response rating [7, 22] | Barnyardgrass plant response rating [7, 23] | Plant response rating, Barnyardgrass [7, 24] | Plant response rating, Barnyardgrass [7, 25]
80: Plant response rating, Wheat [1, 10] | Wheat plant response rating [1, 11] | Plant response rating, Wheat [1, 13] | Plant response rating, Lambsquarters [3, 14] | Plant response rating, Lambsquarters [3, 18] | Plant response rating, Foxtail, Giant [6, 16] | Corn plant response rating (corn (Zea mays); [23]) | Plant response rating, Corn (corn (Zea mays); [25])
95: Plant response rating, Lambsquarters [3, 19]
35: Plant response rating, Wheat [9, 19]
98: Plant response rating, Lambsquarters [3, 15] | Plant response rating, Lambsquarters [3, 16] | Plant response rating, Lambsquarters [3, 17] | Plant response rating, Lambsquarters [3, 20]
